Data published in ChEMBL document CHEMBL4130634, “Discovery of Reversible DNA Methyltransferase and Lysine Methyltransferase G9a Inhibitors with Antitumoral in Vivo Efficacy” (J Med Chem, 2018).
pIC50: −log10 of the molar value. Values belong to the compound of their own block, whether it stands above or below them.

Experiments:
[1] = AUC (0 to 24 hrs) in RARG2-/-gammac-/- Balb/c mouse at 5 mg/kg, ip administered as single dose by LC-MS/MS analysis; format: ADME, organism-based; set-up: time < 24 hr, dose 5 mg/kg, route intraperitoneal; conditions: in vivo
[2] = molecular target: T1, DNA (cytosine-5)-methyltransferase 1 (Homo sapiens, UniProt P26358); experiment: Inhibition of human DNMT1 using polydeoxyinosine polydeoxycytosine DNA as substrate after 15 mins in presence of SAM by TR-FRET assay
THLE-2 = experiment: Growth inhibition of human THLE2 cells after 72 hrs by MTS assay; format: cell-based; conditions: thle-2, 72 h
[3] = molecular target: T1, DNA (cytosine-5)-methyltransferase 1; experiment: Competitive inhibition of human DNMT1 using 1 to 100 ug/ml polydeoxyinosine polydeoxycytosine DNA as substrate after 15 mins in presence of SAM by TR-FRET assay
[4] = Growth inhibition of human CEMO1 cells after 48 hrs by MTS assay; format: functional
[5] = molecular target: T2, Histone-lysine N-methyltransferase EHMT2 (Homo sapiens, UniProt Q96KQ7); experiment: Competitive inhibition of human G9a using 40 to 2560 nM biotinylated-H3K9 peptide as substrate after 1 hr in presence of SAM by TR-FRET assay
T2 sequence (Q96KQ7 whole entry): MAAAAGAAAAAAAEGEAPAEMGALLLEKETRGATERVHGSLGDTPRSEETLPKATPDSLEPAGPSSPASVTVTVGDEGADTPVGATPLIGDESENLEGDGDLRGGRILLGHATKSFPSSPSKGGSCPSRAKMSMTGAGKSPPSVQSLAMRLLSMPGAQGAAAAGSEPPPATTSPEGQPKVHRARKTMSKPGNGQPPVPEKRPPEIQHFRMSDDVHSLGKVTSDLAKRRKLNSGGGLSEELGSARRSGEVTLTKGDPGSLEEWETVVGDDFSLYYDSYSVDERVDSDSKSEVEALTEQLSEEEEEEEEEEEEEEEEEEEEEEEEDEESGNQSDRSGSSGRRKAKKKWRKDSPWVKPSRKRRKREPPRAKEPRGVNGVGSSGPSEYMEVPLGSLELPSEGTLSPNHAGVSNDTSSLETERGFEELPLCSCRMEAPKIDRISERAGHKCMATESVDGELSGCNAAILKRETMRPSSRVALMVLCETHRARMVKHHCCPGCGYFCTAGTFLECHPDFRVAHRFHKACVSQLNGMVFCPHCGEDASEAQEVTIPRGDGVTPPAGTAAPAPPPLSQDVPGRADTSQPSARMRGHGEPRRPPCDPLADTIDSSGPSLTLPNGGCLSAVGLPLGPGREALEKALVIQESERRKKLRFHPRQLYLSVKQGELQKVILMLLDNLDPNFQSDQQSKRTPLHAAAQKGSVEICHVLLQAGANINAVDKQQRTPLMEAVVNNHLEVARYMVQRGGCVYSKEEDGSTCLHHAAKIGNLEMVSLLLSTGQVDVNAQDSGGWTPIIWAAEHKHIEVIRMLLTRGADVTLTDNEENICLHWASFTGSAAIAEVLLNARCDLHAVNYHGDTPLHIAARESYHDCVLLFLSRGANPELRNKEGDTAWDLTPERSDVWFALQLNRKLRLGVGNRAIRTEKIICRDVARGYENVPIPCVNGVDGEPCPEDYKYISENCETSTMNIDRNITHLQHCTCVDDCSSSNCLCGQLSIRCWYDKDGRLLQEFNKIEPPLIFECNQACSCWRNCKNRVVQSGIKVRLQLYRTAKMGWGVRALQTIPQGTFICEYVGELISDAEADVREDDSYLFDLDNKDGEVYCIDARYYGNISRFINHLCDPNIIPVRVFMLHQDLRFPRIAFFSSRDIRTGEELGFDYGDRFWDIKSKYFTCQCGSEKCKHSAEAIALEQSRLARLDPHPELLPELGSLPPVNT

[6] = molecular target: T1, DNA (cytosine-5)-methyltransferase 1; experiment: Non-competitive inhibition of human DNMT1 using polydeoxyinosine polydeoxycytosine DNA as substrate after 15 mins in presence of 1 to 20 uM SAM by TR-FRET assay
[7] = molecular target: T3, Histone-lysine N-methyltransferase EHMT1 (Homo sapiens, UniProt Q9H9B1); experiment: Inhibition of recombinant human GLP using histone H3 peptide as substrate after 120 mins in presence of [3H]SAM by radiometric assay
T3 sequence (Q9H9B1 whole entry): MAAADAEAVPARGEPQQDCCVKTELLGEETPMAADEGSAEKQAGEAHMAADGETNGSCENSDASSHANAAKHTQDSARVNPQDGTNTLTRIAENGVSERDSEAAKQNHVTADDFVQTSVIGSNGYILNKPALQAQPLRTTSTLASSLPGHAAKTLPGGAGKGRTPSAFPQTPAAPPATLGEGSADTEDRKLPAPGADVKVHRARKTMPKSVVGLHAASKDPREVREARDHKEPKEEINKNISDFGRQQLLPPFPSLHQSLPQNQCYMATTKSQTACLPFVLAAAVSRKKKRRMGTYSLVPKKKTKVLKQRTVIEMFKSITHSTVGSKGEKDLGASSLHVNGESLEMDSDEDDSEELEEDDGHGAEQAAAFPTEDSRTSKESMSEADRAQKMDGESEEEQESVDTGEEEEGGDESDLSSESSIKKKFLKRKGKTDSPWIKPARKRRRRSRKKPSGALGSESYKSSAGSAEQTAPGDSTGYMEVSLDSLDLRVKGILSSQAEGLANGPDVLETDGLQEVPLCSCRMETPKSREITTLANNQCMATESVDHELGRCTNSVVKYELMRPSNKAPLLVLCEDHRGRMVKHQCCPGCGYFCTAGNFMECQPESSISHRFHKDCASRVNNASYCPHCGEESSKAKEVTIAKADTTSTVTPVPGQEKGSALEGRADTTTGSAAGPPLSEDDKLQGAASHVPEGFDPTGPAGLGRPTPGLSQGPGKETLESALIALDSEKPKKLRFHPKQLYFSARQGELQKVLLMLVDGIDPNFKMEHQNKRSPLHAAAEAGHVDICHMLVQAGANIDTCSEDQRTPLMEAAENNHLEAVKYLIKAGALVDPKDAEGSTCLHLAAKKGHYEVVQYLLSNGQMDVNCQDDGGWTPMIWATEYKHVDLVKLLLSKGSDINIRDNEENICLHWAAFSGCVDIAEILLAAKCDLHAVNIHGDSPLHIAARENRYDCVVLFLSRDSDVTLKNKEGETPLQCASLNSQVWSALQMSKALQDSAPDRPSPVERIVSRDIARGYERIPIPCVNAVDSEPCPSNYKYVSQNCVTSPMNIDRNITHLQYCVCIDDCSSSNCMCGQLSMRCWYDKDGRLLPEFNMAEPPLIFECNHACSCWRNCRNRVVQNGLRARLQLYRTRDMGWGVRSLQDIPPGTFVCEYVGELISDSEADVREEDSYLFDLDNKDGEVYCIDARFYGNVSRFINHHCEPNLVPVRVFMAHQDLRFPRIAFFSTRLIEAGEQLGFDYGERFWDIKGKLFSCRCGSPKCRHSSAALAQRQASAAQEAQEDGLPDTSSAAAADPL

OCI-Ly10 = experiment: Growth inhibition of human OCI-LY10 cells at 1 uM after 48 hrs by MTS assay relative to control; format: functional; conditions: OCI-Ly10, 48 h, read-out: GI
[8] = molecular target: T2, Histone-lysine N-methyltransferase EHMT2; experiment: Inhibition of human G9a using biotinylated-H3K9 peptide as substrate after 1 hr in presence of SAM by TR-FRET assay
MV4-11 = experiment: Growth inhibition of human MV4-11 cells after 48 hrs by MTS assay; format: functional; conditions: MV4-11, 48 h
OCI-Ly3 = experiment: Growth inhibition of human OCI-LY3 cells at 1 uM after 48 hrs by MTS assay relative to control; format: functional; conditions: OCI-Ly3, 48 h, read-out: GI
[9] = molecular target: T2, Histone-lysine N-methyltransferase EHMT2; experiment: Non-competitive inhibition of human G9a using biotinylated-H3K9 peptide as substrate after 1 hr in presence of 2 to 640 uM SAM by TR-FRET assay
[10] = Half life in human liver microsomes at 1 uM preincubated for 10 mins followed by NADP addition after 20 mins by LC-MS/MS analysis; format: ADME, microsome; conditions: microsomes, 20 min, 1 µM
[11] = Metabolic stability in human liver microsomes assessed as parent compound remaining at 1 uM preincubated for 10 mins followed by NADP addition after 20 mins by LC-MS/MS analysis; format: ADME, microsome; conditions: microsomes, 20 min, 1 µM
[12] = Growth inhibition of human LAL-CUN-2 cells after 48 hrs by MTS assay; format: functional
[13] = Volume of distribution at steady state in RARG2-/-gammac-/- Balb/c mouse at […], iv administered as single dose by LC-MS/MS analysis; format: ADME, organism-based; conditions: in vivo, read-out: Vdss
[14] = Metabolic stability in mouse liver microsomes assessed as parent compound remaining at 1 uM preincubated for 10 mins followed by NADP addition after 20 mins by LC-MS/MS analysis; format: ADME, microsome; conditions: read-out: Stability
[15] = Half life in mouse liver microsomes at 1 uM preincubated for 10 mins followed by NADP addition after 20 mins by LC-MS/MS analysis; format: ADME, microsome
[16] = Clearance in RARG2-/-gammac-/- Balb/c mouse at […], iv administered as single dose by LC-MS/MS analysis; format: ADME, organism-based; conditions: in vivo
[17] = Half life in RARG2-/-gammac-/- Balb/c mouse at […], iv administered as single dose by LC-MS/MS analysis; format: ADME, organism-based; conditions: in vivo
[18] = AUC (0 to 24 hrs) in RARG2-/-gammac-/- Balb/c mouse at […], iv administered as single dose by LC-MS/MS analysis; format: ADME, organism-based; set-up: dose 1.9 mg/kg, time < 24 hr, route intravenous; conditions: in vivo

T1 sequence (P26358 whole entry): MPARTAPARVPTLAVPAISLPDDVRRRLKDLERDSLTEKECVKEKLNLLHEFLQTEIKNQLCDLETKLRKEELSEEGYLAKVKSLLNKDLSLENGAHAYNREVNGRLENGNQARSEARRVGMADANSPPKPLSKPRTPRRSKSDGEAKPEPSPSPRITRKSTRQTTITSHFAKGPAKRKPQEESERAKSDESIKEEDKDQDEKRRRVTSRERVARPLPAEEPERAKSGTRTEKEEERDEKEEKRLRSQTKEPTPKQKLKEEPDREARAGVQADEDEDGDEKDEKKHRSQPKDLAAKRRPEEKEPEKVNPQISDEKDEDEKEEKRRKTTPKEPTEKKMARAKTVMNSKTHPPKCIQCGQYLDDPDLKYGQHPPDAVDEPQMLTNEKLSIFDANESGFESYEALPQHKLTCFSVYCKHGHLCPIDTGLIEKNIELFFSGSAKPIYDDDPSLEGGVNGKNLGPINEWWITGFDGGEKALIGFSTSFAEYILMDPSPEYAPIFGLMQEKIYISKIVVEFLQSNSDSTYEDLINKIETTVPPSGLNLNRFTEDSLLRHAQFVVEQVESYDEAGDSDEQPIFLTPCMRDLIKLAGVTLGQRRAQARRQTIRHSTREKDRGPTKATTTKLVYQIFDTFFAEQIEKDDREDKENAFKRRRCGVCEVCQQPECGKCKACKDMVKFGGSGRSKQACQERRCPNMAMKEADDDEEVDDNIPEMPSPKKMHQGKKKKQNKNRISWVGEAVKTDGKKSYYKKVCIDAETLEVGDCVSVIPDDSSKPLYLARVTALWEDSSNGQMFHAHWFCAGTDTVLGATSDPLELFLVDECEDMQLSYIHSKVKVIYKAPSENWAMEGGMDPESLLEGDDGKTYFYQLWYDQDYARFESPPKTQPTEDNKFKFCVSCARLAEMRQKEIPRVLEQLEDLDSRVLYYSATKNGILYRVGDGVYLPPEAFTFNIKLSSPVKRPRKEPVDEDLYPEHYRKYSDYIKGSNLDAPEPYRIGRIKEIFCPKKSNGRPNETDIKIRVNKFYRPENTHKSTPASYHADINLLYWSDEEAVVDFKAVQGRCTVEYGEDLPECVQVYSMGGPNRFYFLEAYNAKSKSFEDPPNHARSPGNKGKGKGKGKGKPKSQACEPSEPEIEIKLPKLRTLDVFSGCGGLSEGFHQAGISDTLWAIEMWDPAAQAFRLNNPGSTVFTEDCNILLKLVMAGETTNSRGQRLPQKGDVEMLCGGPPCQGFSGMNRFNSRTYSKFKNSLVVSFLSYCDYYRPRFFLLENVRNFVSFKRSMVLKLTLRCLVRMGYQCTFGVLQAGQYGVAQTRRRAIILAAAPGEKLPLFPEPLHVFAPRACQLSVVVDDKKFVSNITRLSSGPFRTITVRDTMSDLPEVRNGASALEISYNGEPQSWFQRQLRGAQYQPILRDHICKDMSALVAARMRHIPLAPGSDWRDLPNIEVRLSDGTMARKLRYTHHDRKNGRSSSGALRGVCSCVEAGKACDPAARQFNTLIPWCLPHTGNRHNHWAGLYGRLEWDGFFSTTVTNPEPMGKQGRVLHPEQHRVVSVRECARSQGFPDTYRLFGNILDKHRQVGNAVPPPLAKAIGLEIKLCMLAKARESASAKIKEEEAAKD

AUC(0-t) at 24 h [1]: 2.31 µM·h
pIC50 [2]: < 4.30
Structure (SMILES): COc1cc2c(NC3CCN(C(C)C)CC3)nc(N3CCC(F)(F)CC3)nc2cc1OCCCN1CCCC1

Structure (SMILES): COc1cc2c(NC3CCN(C(C)C)CC3)cc(C3CCCCC3)nc2cc1OCCCN1CCCC1
LC50 (THLE-2): 83800 nM
pIC50 [3]: 5.00 to 5.85
GI50 [4]: > 10000 nM
pIC50 [5]: 7.54 to 9.15
pIC50 [6]: 5.62 to 5.85
pIC50 [7]: 6.74
inhibition of growth at 1 µM (OCI-Ly10): 0%
pIC50 [8]: 9.15
GI50 (MV4-11): > 10000 nM
inhibition of growth at 1 µM (OCI-Ly3): 0%
pIC50 [9]: 8.70 to 9.30
pIC50 [2]: 6.21

t1/2 [10]: 1.6 h
Stability [11]: 67.1%
Vd [13]: 88.5 L/kg
remaining at 20 min, 1 µM [14]: 16.9%
half-life at 1 µM [15]: 0.2 h
clearance [16]: 98.3 mL/min/kg
half-life [17]: 13.2 h
AUC(0-t) at 24 h [18]: 0.505 µM·h
Structure (SMILES): CCc1ccc(-c2cc(NC3CCN(C)CC3)c3cc(OC)c(OCCCN4CCCC4)cc3n2)o1
GI50 [12]: 577 nM
